“Also recorded” adds a separate entry of the source. One block for each compound: values may come before it. Ends that are not written are not given here.
Columns and labels:
iNOS [1] = assay: iNOS activity in cell lines stably transfected with Kalirin-7, iNOS induced by iNOS plasmid, LPS or LPS plus Aβ1-42; type: cell-based; conditions: for iNOS activity: AtT20, SH-SY5Y, Neuro2A and C6 cell lines, iNOS raised by iNOS plasmid, LPS, or LPS plus Aβ1-42, Canavanine or L-NAME 10 mM; for Aβ1-42-augmented iNOS activity: LPS plus Aβ1-42 treated cell lines
Protocol: Assays for iNOS and NOS—The hippocampal and cerebellar specimens and the transfected cells were homogenized in 50 mM Tris HCl (pH 7.4), 1 mM EDTA, 0.1 mM tetrahydrobiopterin, 2 mM dithiothreitol, 10% (v/v) glycerol, aprotinin (25 μg/ml), leupeptin (25 μg/ml), 100 μM PMSF, 10 μM FMN, and 10 μM FAD. The homogenates were centrifuged at 2,000×g for 15 min, and the supernatants were assayed for iNOS. iNOS was also assayed in the presence of 10 mM Canavanine (Sigma) or L-NAME (Sigma). The collective activity of NOS (including eNOS, nNOS and iNOS) was determined in an identical fashion to iNOS activity, but in the presence of 1.25 mM Ca^2+.
Preparation of Aβ1-42 peptide—One mM of A β1-42 (Biosource) was prepared in a capped vial at 37° C. for 5 days, and stored at −20° C. The frozen stock solution was diluted and used at the final concentration of 10 μM.
Cell culture and transfection—AtT-20 cells (ATCC# CCL-89), SH-SY5Y cells (ATCC# CRL-2266), C6 cells (ATCC# CCL-107) and Neuro-2A cells (ATCC # CCL-131) were cultured according to the supplier's instructions. Each cell line was grown in a 25 cm^2 flask, stably transfected with pcDNA4 vector carrying Kalirin-7 or pcDNA3 carrying iNOS, using SuperFect transfection reagents (Qiagen) following the manufacture's instructions. Stable cell lines were selected using 0.5 mg/ml of G-418 for pcDNA3 or 0.12 μg/ml of zeocin for pcDNA4.
To induce the iNOS activity, cell lines were transfected with iNOS in pcDNA3 or stimulated with 3 μg/ml of lipopolysaccharides (LPS) for 12-16 h (27) or 10 μM A β1-42 peptide for 18 h. Two different approaches of double transfection with Kalirin-7 and iNOS were used to determine the effects of Kalirin-7 on iNOS. The cell line stably expressing Kalirin-7 was transiently transfected with iNOS, and conversely, the cell line stably expressing iNOS was transiently transfected with increasing amounts of pcDNA4 carrying Kalirin-7 or Kalirin domains.

iNOS [2] = target: T1, iNOS (Homo sapiens, UniProt P35228); assay: iNOS activity in AtT-20 cells stably expressing iNOS, transiently transfected with Kalirin-7, Kalirin domain or section plasmids; type: cell-based, mouse
T1 construct: expressed in transfected cells
Protocol: Assays for iNOS and NOS-The hippocampal and cerebellar specimens and the transfected cells were homogenized in 50 mM Tris HCl (pH 7.4), 1 mM EDTA, 0.1 mM tetrahydrobiopterin, 2 mM dithiothreitol, 10% (v/v) glycerol, aprotinin (25 μg/ml), leupeptin (25 μg/ml), 100 μM PMSF, 10 μM FMN, and 10 μM FAD. […] The collective activity of NOS (including eNOS, nNOS and iNOS) was determined in an identical fashion to iNOS activity, but in the presence of 1.25 mM Ca^2+. Cell culture and transfection-AtT-20 cells (ATCC# CCL-89), SH-SY5Y cells (ATCC# CRL-2266), C6 cells (ATCC# CCL-107) and Neuro-2A cells (ATCC # CCL-131) were cultured according to the supplier's instructions. Each cell line was grown in a 25 cm^2 flask, stably transfected with pcDNA4 vector carrying […]-7 or pcDNA3 carrying iNOS, using SuperFect transfection reagents (Qiagen) following the manufacture's instructions. Stable cell lines were selected using 0.5 mg/ml of G-418 for pcDNA3 or 0.12 μg/ml of zeocin for pcDNA4. To induce the iNOS activity, cell lines were transfected with iNOS in pcDNA3 or stimulated with 3 μg/ml of lipopolysaccharides (LPS) for 12-16 h (27) or 10 μM A β1-42 peptide for 18 h. Two different approaches of double transfection with […]-7 and iNOS were used to determine the effects of […]-7 on iNOS. The cell line stably expressing […]-7 was transiently transfected with iNOS, and conversely, the cell line stably expressing iNOS was transiently transfected with increasing amounts of pcDNA4 carrying […]-7 or […] domains.

[3] = tested on: AtT-20 cells stably expressing iNOS; assay: Renilla luciferase assay as transfection reference for toxic effect of plasmid DNA; type: cell-based, mouse; conditions: increasing plasmid amounts co-transfected with constant pRL-TK vector
Protocol: To test the putative toxic effect of high concentrations of plasmid DNA, up to 2.5 μg, the Renilla luciferase assay (Promega) was used as a transfection reference. The AtT-20 cells stably expressing iNOS were transiently transfected with a constant amount of the pRL-TK vector (Promega) carrying Renilla luciferase and increasing amounts of the Kalirin plasmid. The co-transfected cells were assayed for iNOS and luciferase following the manufacturer's instructions.

iNOS [4] = target: T1, iNOS; assay: Co-immunoprecipitation of iNOS with Kalirin-7 by anti-Kalirin in co-transfected AtT-20 cells; type: binding; conditions: increasing amounts of Kalirin-7 plasmid
Protocol: Immunoblot and immunoprecipitation—Proteins were extracted. Brain samples were directly solubilized in 10 volume of lysis buffer (50 mM Tris HCl at pH 7.5, 120 mM NaCl, 5 mM EDTA, 1% Nonidet P-40 (0.3 mg/ml), 8 μg/ml aprotinin, 2 μg/ml pepstatin A, 2 μg/ml leupeptin, 1 mM Na3VO4, 50 mM NaF and 0.2% of SDS) using Omni 2000 homogenizer (Omni International Inc). The solubilized samples were centrifuged at 15,000×g for 10 min, the supernatants were saved, and protein concentration was measured by the Bradford method. Cultured cells were suspended in another lysis buffer consisting of 100 mM Tris HCl (pH7.5), 150 mM NaCl, 2 mM EDTA, 0.5% of Triton X-100, 1 mM PMSF, 4 μg/ml aprotinin, 1 μg/ml pepstatin A, 1 μg/ml leupeptin, 1 mM Na3VO4, 50 mM NaF and 0.2% of SDS), and processed.
An equal protein-amount of solubilized supernatants was resolved by SDS-PAGE and blotted onto polyvinylidene difluoride membrane. The membranes were incubated for 1 h in blocking solution containing 3% bovine serum albumin. The membranes were incubated for 1 h with primary antibodies diluted 1:500 in Tris-buffered saline containing 0.1% Tween 20. After washing, membranes were incubated for 1 h in 1:10,000 dilution of secondary antibodies coupled to horseradish peroxidase. […] Blots were scanned, and the band intensity was digitized and quantified using Molecular Dynamics Image Quant 5.1. […]

T1 sequence (P35228 whole entry, species assumed, the tested form may be a part): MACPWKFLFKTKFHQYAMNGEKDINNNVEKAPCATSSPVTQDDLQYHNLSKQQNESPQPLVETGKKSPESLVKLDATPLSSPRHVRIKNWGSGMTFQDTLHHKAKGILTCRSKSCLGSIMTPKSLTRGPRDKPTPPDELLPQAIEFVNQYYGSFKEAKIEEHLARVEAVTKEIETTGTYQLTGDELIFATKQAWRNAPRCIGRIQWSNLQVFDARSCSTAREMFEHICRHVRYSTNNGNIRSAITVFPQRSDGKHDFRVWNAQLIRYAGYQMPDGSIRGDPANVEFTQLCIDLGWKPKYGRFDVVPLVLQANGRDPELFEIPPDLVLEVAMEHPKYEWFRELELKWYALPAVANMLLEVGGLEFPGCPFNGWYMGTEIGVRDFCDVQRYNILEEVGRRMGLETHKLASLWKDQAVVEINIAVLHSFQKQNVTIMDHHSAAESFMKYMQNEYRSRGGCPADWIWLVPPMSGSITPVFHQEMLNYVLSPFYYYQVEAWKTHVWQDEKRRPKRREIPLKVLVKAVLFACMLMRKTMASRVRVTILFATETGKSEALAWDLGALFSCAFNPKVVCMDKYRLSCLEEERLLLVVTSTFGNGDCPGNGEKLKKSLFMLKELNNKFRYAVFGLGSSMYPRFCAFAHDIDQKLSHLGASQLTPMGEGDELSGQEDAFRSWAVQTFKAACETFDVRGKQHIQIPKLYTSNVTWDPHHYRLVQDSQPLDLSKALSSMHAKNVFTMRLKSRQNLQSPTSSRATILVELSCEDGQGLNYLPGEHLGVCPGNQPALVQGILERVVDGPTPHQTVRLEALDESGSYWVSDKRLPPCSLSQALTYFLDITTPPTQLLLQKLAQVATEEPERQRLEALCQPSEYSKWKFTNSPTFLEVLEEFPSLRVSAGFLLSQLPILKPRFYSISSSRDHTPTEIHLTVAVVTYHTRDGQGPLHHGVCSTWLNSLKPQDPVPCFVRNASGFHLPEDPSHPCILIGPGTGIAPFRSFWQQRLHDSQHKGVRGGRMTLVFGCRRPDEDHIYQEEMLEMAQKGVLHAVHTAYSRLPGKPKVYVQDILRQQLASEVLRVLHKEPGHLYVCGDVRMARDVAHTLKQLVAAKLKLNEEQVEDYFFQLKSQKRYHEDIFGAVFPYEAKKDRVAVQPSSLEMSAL

Compound: N=C(N)NOCC[C@H](N)C(=O)O [Canavanine]
iNOS activity (iNOS [1]): suppressed to basal levels
Aβ1-42-augmented iNOS activity (iNOS [1]): attenuated

Compound: COC(=O)[C@@H](N)CCCNC(=N)N[N+](=O)[O-] [L-NAME]
iNOS activity (iNOS [1]): suppressed to basal levels
Aβ1-42-augmented iNOS activity (iNOS [1]): attenuated

Compound: Aβ1-42: amyloidogenic peptide Aβ1-42 (Biosource), used at 10 μM
iNOS activity induced by LPS treatment (iNOS [1]; LPS plus 10 μM Aβ1-42, stable cell lines): augments iNOS activity

Compound: D2: Kalirin domain consisting of the 354 amino acid V506-Q860 sequence of SEQ ID NO:2, expressed from pcDNA4
iNOS activity (iNOS [2]; transient transfection with pcDNA4 carrying individual Kalirin-7 domains): attenuated; also recorded: most notably attenuated

suppression of iNOS versus plasmid concentration (iNOS [2]; increasing amounts of Kalirin section 8 plasmid): dependent on the concentration
iNOS suppression (iNOS [2]; transient transfection with pcDNA4 carrying individual 33 amino acid sections, compared with D2 and wild type Kalirin 7): suppressed most effectively
Compound: KAARHLEVRIQDFVRRVEQRKLLLDMSVSFHTH (also: Flag epitope tag; listed as Homo sapiens) [section # 8]

iNOS activity (iNOS [2]; increasing amounts of pcDNA4 Kalirin-7 vector): decreased
Compound: Kalirin-7: cytoplasmic protein of >1,660 amino acids (SEQ ID NO:2), expressed from pcDNA4 carrying the Kalirin-7 cDNA
iNOS activity (iNOS [1]): suppressed to basal levels
Aβ1-42-augmented iNOS activity (iNOS [1]): attenuated
synthesis and activity of Renilla luciferase (putative toxic effect of plasmid) [3]: did not impair
iNOS co-immunoprecipitated by anti-Kalirin (iNOS [4]): increasing concentrations of iNOS were co-immunoprecipitated
